The values below come from patent US20080241904A1, “PROCESS FOR PRODUCING ISOMALTOSE AND USES THEREOF” (KABUSHIKI KAISHA HAYASHIBARA SEIBUTSU KAGAKU KENKYUJO, priority 2001, published 2008).

Assay [1] relates to α-isomaltosylglucosaccharide-forming enzyme from Bacillus globisporus C9 strain. Description: Specificity of saccharide transferring reaction acceptor, enzyme of Strain C9. Also noted: key: −: no saccharide-transferred product was detected through transferring reaction to acceptor; ±: a saccharide-transferred product was detected in an amount of less than one percent through transfer reaction to acceptor; +: a saccharide-transferred product was detected in an amount of at least one percent but less than ten percent through transferring reaction to acceptor; ++: a saccharide-transferred product was detected in an amount of at least ten percent through transferring reaction to acceptor. It is filed as biochemical. The settings on record: 1.6% acceptor, 4% PINE-DEX #100 as donor, one unit/g donor, 30° C., pH 6.0, 24 hours; GLC or HPLC. How it is done: (§1) Using different saccharides, it was tested whether the saccharides were used as saccharide transferring reaction acceptors for the α-isomaltosylglucosaccharide-forming enzyme. A 1.6% solution, as a solution of saccharide transferring reaction acceptor, of D-glucose, D-xylose, L-xylose, D-galactose, D-fructose, D-mannose, D-arabinose, D-fucose, L-sorbose, L-rhamnose, methyl-α-glucopyranoside (methyl-α-glucose), methyl-β-glucopyranoside ([…]), N-acetyl-glucosamine, sorbitol, α,α-trehalose, isomaltose, isomaltotriose, cellobiose, gentibiose, maltitol, lactose, sucrose, α-cyclodextrin, β-cyclodextrin, or γ-cyclodextrin, was prepared. To each solution with a saccharide concentration was added “PINE-DEX #100”, a partial starch hydrolysate, as a saccharide donor, to give a concentration of 4%, and admixed with one unit/g saccharide donor, d.s.b., of either of purified specimens of α-isomaltosylglucosaccharide-forming enzyme from Bacillus globisporus C9 strain obtained by the method in Experiment 2-1, Bacillus globisporus C11 strain obtained by the method in Experiment 4-1. The resulting mixture solutions were incubated at 30° C. and pH 6.0 except that the enzyme from Arthrobacter globiformis A19 strain was incubated at pH 8.4 for 24 hours. The reaction mixtures of the post-enzymatic reactions were analyzed on gas chromatography (abbreviated as “GLC” hereinafter) for monosaccharides and disaccharides as acceptors, and on HPLC for trisaccharides as acceptors to confirm whether these saccharides could be used as their saccharide transferring reaction acceptors. In the case of performing GLC, the following apparatuses and conditions are used: GLC apparatus, “GC-16A” commercialized by Shimadzu Corporation, Tokyo, Japan; column, a stainless-steel column, 3 mm in diameter and 2 m in length, packed with 2% “SILICONE OV-17/CHROMOSOLV W”, commercialized by GL Sciences Inc., Tokyo, Japan; carrier gas, nitrogen gas at a flow rate of 40 ml/min under temperature conditions of increasing from 160° C. to 320° C. at an increasing temperature rate of 7.5° C./min; and detection, a hydrogen flame ionization detector.
(§2) In the case of HPLC analysis, the apparatuses and conditions used were: HPLC apparatus, “CCPD” commercialized by Tosoh Corporation, Tokyo, Japan; column, “ODS-AQ-303” commercialized by YMC Co., Ltd., Tokyo, Japan; eluent, water at a flow rate of 0.5 ml/min; and detection, a differential refractometer.

Assay [2] relates to α-isomaltosylglucosaccharide-forming enzyme from Bacillus globisporus C11 strain. Kind of assay: Specificity of saccharide transferring reaction acceptor, enzyme of Strain C11. The format is biochemical. Also noted: key: −: no saccharide-transferred product was detected through transferring reaction to acceptor; ±: a saccharide-transferred product was detected in an amount of less than one percent through transfer reaction to acceptor; +: a saccharide-transferred product was detected in an amount of at least one percent but less than ten percent through transferring reaction to acceptor; ++: a saccharide-transferred product was detected in an amount of at least ten percent through transferring reaction to acceptor. The note with it: 1.6% acceptor, 4% PINE-DEX #100 as donor, one unit/g donor, 30° C., pH 6.0, 24 hours; GLC or HPLC. The protocol:
as §1, §2

For `O=C[C@@H](O)[C@H](O)[C@H](O)CO` [D-Arabinose, D-arabinose], in assay [1], the “Product of saccharide transferring reaction, Enzyme of Strain C9” value (“Product … of Strain C9” for short) was “± (a saccharide-transferred product was detected in an amount of less than one percent through transfer reaction to acceptor)”. Also, in assay [2], the “Product of saccharide transferring reaction, Enzyme of Strain C11” value (“Product … of Strain C11” for short) was “± (a saccharide-transferred product was detected in an amount of less than one percent through transfer reaction to acceptor)”.
For the compound `O=C(CO)[C@@H](O)[C@H](O)[C@H](O)CO` [D-Fructose, D-fructose], in assay [1], the “Product … of Strain C9” value is “+ (a saccharide-transferred product was detected in an amount of at least one percent but less than ten percent through transferring reaction to acceptor)”. For the same compound, in assay [2], the “Product … of Strain C11” value is reported as “+ (a saccharide-transferred product was detected in an amount of at least one percent but less than ten percent through transferring reaction to acceptor)”.
In the case of `C[C@@H](O)[C@H](O)[C@H](O)[C@@H](O)C=O` [D-Fucose, D-fucose], the “Product … of Strain C9” value in assay [1] is listed as “+ (a saccharide-transferred product was detected in an amount of at least one percent but less than ten percent through transferring reaction to acceptor)”. Besides, the “Product … of Strain C11” value in assay [2] is given as “+ (a saccharide-transferred product was detected in an amount of at least one percent but less than ten percent through transferring reaction to acceptor)”.
Consider `O=C[C@H](O)[C@@H](O)[C@@H](O)[C@H](O)CO` [D-Galactose, D-galactose], for which the “Product … of Strain C9” value in assay [1] is given as “+ (a saccharide-transferred product was detected in an amount of at least one percent but less than ten percent through transferring reaction to acceptor)”. Further, the “Product … of Strain C11” value in assay [2] is “+ (a saccharide-transferred product was detected in an amount of at least one percent but less than ten percent through transferring reaction to acceptor)”.
With `O=C[C@H](O)[C@@H](O)[C@H](O)[C@H](O)CO` [D-Glucose, D-glucose], in assay [1], the “Product … of Strain C9” value is “+ (a saccharide-transferred product was detected in an amount of at least one percent but less than ten percent through transferring reaction to acceptor)”. Moreover, in assay [2], the “Product … of Strain C11” value is on record as “+ (a saccharide-transferred product was detected in an amount of at least one percent but less than ten percent through transferring reaction to acceptor)”.
For `O=C[C@@H](O)[C@@H](O)[C@H](O)[C@H](O)CO` [D-Mannose, D-mannose], in assay [1], the “Product … of Strain C9” value is listed as “−”. Besides, in assay [2], the “Product … of Strain C11” value was “−”.
For the compound `O=C[C@H](O)[C@@H](O)[C@H](O)CO` [D-Xylose, D-xylose], the “Product … of Strain C9” value in assay [1] is “++ (a saccharide-transferred product was detected in an amount of at least ten percent through transferring reaction to acceptor)”. Besides, in assay [2], the “Product … of Strain C11” value was “++ (a saccharide-transferred product was detected in an amount of at least ten percent through transferring reaction to acceptor)”.
As to `C[C@H](O)[C@H](O)[C@@H](O)[C@@H](O)C=O` [L-Rhamnose, L-rhamnose], in assay [1], the “Product … of Strain C9” value is “−”. Moreover, the “Product … of Strain C11” value in assay [2] is recorded as “−”.
For the compound `O=C(CO)[C@@H](O)[C@H](O)[C@@H](O)CO` [L-Sorbose, L-sorbose], the “Product … of Strain C9” value in assay [1] was “+ (a saccharide-transferred product was detected in an amount of at least one percent but less than ten percent through transferring reaction to acceptor)”. In assay [2], the “Product … of Strain C11” value is “+ (a saccharide-transferred product was detected in an amount of at least one percent but less than ten percent through transferring reaction to acceptor)”.
For `O=C[C@@H](O)[C@H](O)[C@@H](O)CO` [L-Xylose, L-xylose], the “Product … of Strain C9” value in assay [1] was “++ (a saccharide-transferred product was detected in an amount of at least ten percent through transferring reaction to acceptor)”. Besides, in assay [2], the “Product … of Strain C11” value was “++ (a saccharide-transferred product was detected in an amount of at least ten percent through transferring reaction to acceptor)”.
As to `CO[C@H]1O[C@H](CO)[C@@H](O)[C@H](O)[C@H]1O` [Methyl-α-glucopyranoside, methyl-α-glucopyranoside], the “Product … of Strain C9” value in assay [1] is “++ (a saccharide-transferred product was detected in an amount of at least ten percent through transferring reaction to acceptor)”. Also, the “Product … of Strain C11” value in assay [2] is “++ (a saccharide-transferred product was detected in an amount of at least ten percent through transferring reaction to acceptor)”.
`CO[C@@H]1O[C@H](CO)[C@@H](O)[C@H](O)[C@H]1O` [Methyl-β-glucopyranoside, methyl-β-glucopyranoside]: in assay [1], the “Product … of Strain C9” value is on record as “++ (a saccharide-transferred product was detected in an amount of at least ten percent through transferring reaction to acceptor)”. In addition, the “Product … of Strain C11” value in assay [2] is listed as “++ (a saccharide-transferred product was detected in an amount of at least ten percent through transferring reaction to acceptor)”.
Turning to `CC(=O)N[C@H]1C(O)O[C@H](CO)[C@@H](O)[C@@H]1O` (stereo partly shown) [N-Acetyl-glucosamine, N-acetyl-glucosamine], in assay [1], the “Product … of Strain C9” value is “+ (a saccharide-transferred product was detected in an amount of at least one percent but less than ten percent through transferring reaction to acceptor)”. Further, the “Product … of Strain C11” value in assay [2] is reported as “+ (a saccharide-transferred product was detected in an amount of at least one percent but less than ten percent through transferring reaction to acceptor)”.
On to `OC[C@@H](O)[C@@H](O)[C@H](O)[C@@H](O)CO` [Sorbitol, sorbitol], for which the “Product … of Strain C9” value in assay [1] was “−”. Also, the “Product … of Strain C11” value in assay [2] is “−”.
For `OC[C@H]1O[C@@H]2O[C@H]3[C@H](O)[C@@H](O)[C@@H](O[C@H]4[C@H](O)[C@@H](O)[C@@H](O[C@H]5[C@H](O)[C@@H](O)[C@@H](O[C@H]6[C@H](O)[C@@H](O)[C@@H](O[C@H]7[C@H](O)[C@@H](O)[C@@H](O[C@H]1[C@H](O)[C@H]2O)O[C@@H]7CO)O[C@@H]6CO)O[C@@H]5CO)O[C@@H]4CO)O[C@@H]3CO` [α-Cyclodextrin, α-cyclodextrin], the “Product … of Strain C9” value in assay [1] is given as “−”. Further, in assay [2], the “Product … of Strain C11” value is listed as “−”.
As to `OC[C@H]1O[C@@H]2O[C@H]3[C@H](O)[C@@H](O)[C@@H](O[C@H]4[C@H](O)[C@@H](O)[C@@H](O[C@H]5[C@H](O)[C@@H](O)[C@@H](O[C@H]6[C@H](O)[C@@H](O)[C@@H](O[C@H]7[C@H](O)[C@@H](O)[C@@H](O[C@H]8[C@H](O)[C@@H](O)[C@@H](O[C@H]1[C@H](O)[C@H]2O)O[C@@H]8CO)O[C@@H]7CO)O[C@@H]6CO)O[C@@H]5CO)O[C@@H]4CO)O[C@@H]3CO` [β-Cyclodextrin, β-cyclodextrin], the “Product … of Strain C9” value in assay [1] is “−”. For the same compound, the “Product … of Strain C11” value in assay [2] was “−”.
On to `OC[C@H]1O[C@@H]2O[C@H]3[C@H](O)[C@@H](O)[C@@H](O[C@H]4[C@H](O)[C@@H](O)[C@@H](O[C@H]5[C@H](O)[C@@H](O)[C@@H](O[C@H]6[C@H](O)[C@@H](O)[C@@H](O[C@H]7[C@H](O)[C@@H](O)[C@@H](O[C@H]8[C@H](O)[C@@H](O)[C@@H](O[C@H]9[C@H](O)[C@@H](O)[C@@H](O[C@H]1[C@H](O)[C@H]2O)O[C@@H]9CO)O[C@@H]8CO)O[C@@H]7CO)O[C@@H]6CO)O[C@@H]5CO)O[C@@H]4CO)O[C@@H]3CO` [γ-Cyclodextrin, γ-cyclodextrin], for which the “Product … of Strain C9” value in assay [1] was “−”. In addition, in assay [2], the “Product … of Strain C11” value is given as “−”.
